For 1 substance, serum calcium results are on record in patent EP1124847B1, “LHRH ANALOGUES FOR THE TREATMENT OF OSTEOPOROSIS” (Ferring B.V., priority 1998, dated 2004).

The assay is described as follows: Serum calcium in the ovariectomised rat (colorimetric assay, day 28). It is filed as in vivo, Sprague Dawley rats. To be noted: ovariectomised rats, 80µg/kg daily for 28days. Here is the method:
• (a) Female adult (8 weeks old, 200-215g) Sprague Dawley rats were bilaterally ovariectomised (OVX). Animals were kept for 4 weeks […] before commencing treatment. -Purina rat chow (1.00% calcium, 0.61% phosphorous) and water were provided ad libitum. Each study consisted of 6 weight-matched groups (n = 8/group). • (b) Treatment started 4 weeks post-OVX. After 4 weeks, a baseline control OVX group was sacrificed (Group A). The remaining groups were injected once a day with vehicle (Group B), 1µg/kg body weight (Group C), 10µg/kg body weight (Group D), 100µg/kg body weight (Group E) of GnRH-II, and 80µg/kg body weight (Group F) of hPTH(1-34). • (c) All rats were weighed every fourth day and dosages adjusted for 50g increase in mean group weight. Rats were given alternate subcutaneous injections ofcalcein (30mg/kg) or tetracyclin (30mg/kg) in 2% sodium bicarbonate-saline, respectively to label mineralization surfaces on days 10, 19 and 26, following treatment with drug. Bone mineral density was assessed by dual energy x-ray absorptometry-DEXA). On day 28 serum calcium levels were determined by colorimetric assay using a commercial kit. • (d) Success of OVX was confirmed at necropsy by failure to detect ovarian tissue and by observation of marked atrophy of the uterine horns. Both legs were disarticulated at the hip. […]

For “PTH: Parathyroid hormone, hPTH(1-34), 80µg/kg comparison group (Group F) (SVSEIQLMHNLGKHLNSMERVEWLRKKLQDVHNF; Parathyroid hormone; UniProt P01270 32-65, looked up, fragment)”, the serum calcium entry is on record as “pronounced hypercalcemia”.
